These results are taken from publication PMC2729980 (Planta, 2009).

The target of this test is T1, DkFGT (GST-DkFGT) (Diospyros kaki, UniProt C8KH59).
T1 sequence (C8KH59 1-459): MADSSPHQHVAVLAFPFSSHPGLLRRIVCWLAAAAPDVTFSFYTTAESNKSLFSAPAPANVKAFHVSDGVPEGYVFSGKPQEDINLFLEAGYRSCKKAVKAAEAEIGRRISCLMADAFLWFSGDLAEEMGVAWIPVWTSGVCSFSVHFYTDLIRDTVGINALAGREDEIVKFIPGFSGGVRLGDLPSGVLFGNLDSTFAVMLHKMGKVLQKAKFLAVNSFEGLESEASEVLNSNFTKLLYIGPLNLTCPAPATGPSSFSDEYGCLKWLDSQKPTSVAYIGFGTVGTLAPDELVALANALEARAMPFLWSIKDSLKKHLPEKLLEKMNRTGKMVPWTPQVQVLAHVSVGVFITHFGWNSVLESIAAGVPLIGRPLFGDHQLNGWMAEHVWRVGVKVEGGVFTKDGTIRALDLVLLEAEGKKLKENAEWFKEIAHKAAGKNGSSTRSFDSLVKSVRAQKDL
The experiment in a line: biochemical.

In general, Km refers to the concentration of substrate that gives half-maximal velocity. For the molecule `Oc1ccc(-c2[o+]c3cc(O)cc(O)c3cc2O)cc1` [pelargonidin], the Km worked out at 186 µM.

As to `O=c1c(O)c(-c2ccc(O)cc2)oc2cc(O)cc(O)c12` [kaempferol], the Km was found to be 143 µM.
